The text below walks through data of publication PMC12631437, “Evaluation of the Activity of 4‑Quinolones against Multi-Life Stages of Plasmodium spp” (ACS Omega, 2025).

Data set [1] relates to P. falciparum oocyst development. On the set-up: method as in PMID 12878530, PMID 17361016. The conditions noted are these: studies primarily focused on P. falciparum; ref 27;28; cited from earlier work.
The subject of another data set is P. vivax ookinetes. The data set is described as follows: Ex vivo P. vivax ookinete formation assay with patient isolates. In kind it is cell-based, Plasmodium vivax. The conditions noted are these: Plasmodium vivax, 24 h, 10 μM, n = 6 patients, read-out: P. vivax ookinete formation inhibition (median). On the procedure:
Participants were recruited from patients diagnosed with P. vivax malaria via Giemsa-stained blood smears at CEPEM in Porto Velho, Rondônia, Brazil (#28176720.9.0000.0011). Criteria included: P. vivax parasitemia >2000 parasites/μL, age 18–85, no severe malaria, no concomitant diseases, nonpregnant, and consent to study procedures. Approximately 10 mL of venous blood was collected into heparin-coated vials, maintained at 37 °C, and transported to PIVEM for DMFA. Malaria treatment followed Brazilian Ministry of Health guidelines and was unaffected by study participation. […] Erythrocytes were washed with incomplete RPMI-1640 medium by centrifugation at 1500 rpm for 10 min to remove leukocytes. […] The sample was centrifuged once at 450 g for 15 min without a brake. After centrifugation, the pellet remaining at the interface was collected and washed twice at 2000 g for 5 min. […] The parasites were incubated for 24 h at a temperature of 21–24 °C. After this period, the activity of the compounds was determined by microscopy, counting 100 fields to determine the parasitemia per μL in each sample, and counting the mature and immature ookinetes. […] Red blood cells were then washed with incomplete RPMI-1640 medium through centrifugation at 1500 rpm for 10 min to remove leukocytes. […] The sample was centrifuged once at 2000 rpm for 15 min without brake. After centrifugation, the remaining pellet at the interface was collected and washed twice at 2000 rpm for 5 min. […] Parasites were incubated for 24 h at a temperature of 21–24 °C. After this period, compound activity was determined by microscopy counting in 100 fields to determine parasitemia per μL in each sample.

Data set [2] relates to P. falciparum ATQ_R1 strain. Kind of data set: SYBR Green growth assay, asexual blood stages, ATQ_R1 strain. In kind it is cell-based, Plasmodium falciparum. The note with it: Plasmodium falciparum, 72 h. On the procedure: (§1) Healthy blood samples for parasite culture were obtained from voluntary donors (approved under protocol #28176720.9.0000.0011), processed to remove white blood cells, and stored at 2 °C–8 °C for up to 15 days. Parasite strains SB1-A6, 7G8, V1/S, and HB3 were acquired from BEI-MR4, while the ATQ R1 strain, carrying a V259L gene mutation, was generated in-house. Infected erythrocytes were cultured in RPMI 1640 medium supplemented with Hepes, sodium bicarbonate, glucose, Albumax, and gentamicin, […], and incubated in a 5% CO2, 5% O2, and 90% N2 gas mixture at 37 °C with daily medium changes. Parasitemia was monitored using Giemsa-stained blood smears.
(§2) Bioassays were conducted with synchronized ring-stage parasites using sorbitol synchronization. Antimalarial compounds were evaluated in 96-well plates, and parasite growth was assessed using a SYBR Green-based fluorescence assay The assays were conducted when the parasite quantity reached at least 70% of the ring stage. Compounds were initially added at specific concentrations in the first wells, followed by serial dilution (1:2) ranging from 20 μM to 0.009 μM. Subsequently, a solution containing parasites in RPMI medium at a hematocrit of 2% was added to each well, and the parasites were then incubated for 72 h.
(§3) To assess parasite growth, the culture medium was replaced with a lysis solution (Trisbase: 49.31%, EDTA: 30.00%, Saponin: 0.16%, Triton: 0.02%) containing the fluorescent dye SYBR Green (Sigma). After a 30 min incubation, fluorescence readings were taken to determine the 50% inhibitory concentration (IC50) of parasite growth. The IC50 values were determined using concentration–response curves generated in GraphPad 8 software. Additionally, the resistance index was calculated by comparing IC50 values obtained for the sensitive 3D7 strain with those of the resistant strains.

In data set [3] the test system is P. falciparum V1/S strain. Kind of data set: microbe, parasite or virus in culture. In kind it is cell-based, Plasmodium falciparum. The note with it: Plasmodium falciparum, 72 h. On the procedure:
as §1, §2, §3

Data set [4] concerns Plasmodium falciparum 3D7 sensitive strain. Kind of data set: SYBR Green growth assay, asexual blood stages, 3D7 sensitive strain. In kind it is cell-based. The conditions noted are these: Plasmodium falciparum, 3D7, 72 h, asexual blood stages, 3D7 sensitive strain, 72 h; read-out: IC50. On the procedure:
(§4) Parasite strains SB1-A6, 7G8, V1/S, and HB3 were acquired from BEI-MR4, while the ATQ R1 strain, carrying a V259L gene mutation, was generated in-house. […] Parasitemia was monitored using Giemsa-stained blood smears.
as §2
(§5) The IC50 values were determined using concentration–response curves generated in GraphPad 8 software. Additionally, the resistance index was calculated by comparing IC50 values obtained for the sensitive 3D7 strain with those of the resistant strains.

The next data set concerns P. falciparum HB3 strain. The data set is described as follows: SYBR Green growth assay, asexual blood stages, HB3 strain. Format: cell-based, Plasmodium falciparum. The note with it: Plasmodium falciparum; HB3 strain, 72 h; read-out: IC50. On the procedure: as §4, §2, §5
In data set [5] the test system is P. falciparum SB1-A6 strain. Kind of data set: SYBR Green growth assay, asexual blood stages, SB1-A6 strain. The note with it: Plasmodium falciparum, 72 h. In kind it is cell-based, Plasmodium falciparum. On the procedure:
as §1, §2, §3

A further data set has as its system P. falciparum 7G8 strain. The data set is described as follows: SYBR Green growth assay, asexual blood stages, 7G8 strain. Format: cell-based, Plasmodium falciparum. The note with it: Plasmodium falciparum; 7G8 strain, 72 h; read-out: IC50. On the procedure:
as §1, §2, §3

The test system of a further data set is HepG2 cells. The data set is described as follows: Mitochondrial toxicity, HepG2 cells cultured in glucose or galactose (resazurin). Format: cell-based. The conditions noted are these: HepG2 under either condition (glucose or galactose), 3.125–50 μM, 24 h. On the procedure:
To evaluate mitochondrial toxicity, HepG2 cells were cultured in RPMI-1640 medium under two metabolic conditions: one group was maintained in standard RPMI supplemented with 2 g/L glucose (glucose condition), while the second group was gradually adapted to rely on galactose as the primary energy source. For this adaptation, glucose levels were reduced by 20% every 2 days until reaching a final concentration of 20% of the original glucose amount. On the day of the assay, the […] cells were cultured in glucose-free RPMI medium supplemented with 10 mM galactose. When cells reached 80% confluence, they were detached using 2 mL of trypsin-EDTA solution (0.2 g of EDTA) for 5 min at 37 °C, then resuspended in fresh medium and centrifuged at 100 × g for 1 min. After centrifugation, cells were counted using a Neubauer chamber and seeded at […] per well in 96-well plates containing 180 μL of culture medium. Plates were incubated at 37 °C with 5% CO2 for 12–16 h to allow for cell adhesion. […] After treatment, 40 μL of a 0.15 mg/mL resazurin solution (RSZ) was added to each well and incubated for an additional 5 h. RSZ is a nontoxic, cell-permeable blue dye that is reduced by metabolically active cells to highly fluorescent pink resorufin. Fluorescence was measured using a fluorimeter with excitation/emission at 560/590 nm. Cell viability was calculated relative to untreated controls (set at 100%), determined using GraphPad Prism 8.
For orientation: The colour change of resazurin is a common sign of viable cells or microbes.

For a further data set, the system named is 164/GFP. The note with it: strain 164/GFP; cited from earlier work.
For data set [6], the system named is P. falciparum hepatic stages. The note with it: cited from earlier work.
In data set [7] the test system is P. falciparum salivary gland infections in mosquitoes. Also noted: method as in Sáenz et al. The note with it: drug-treated blood at 1 μM, compared to untreated control; ref Sáenz et al.; cited from earlier work.
For data set [8], the system named is P. falciparum oocysts in An. freeborni. On the set-up: method as in Sáenz et al. The conditions noted are these: early stage gametocyte treatments; ref Sáenz et al.; cited from earlier work.
The next data set concerns TM90C2B. The note with it: strain TM90C2B; cited from earlier work.

In brackets after ≈: the same amount, converted by molar mass.

As for `CCCCN(CCCC)CC(O)c1cc(Cl)cc2c1-c1ccc(Cl)cc1/C2=C/c1ccc(Cl)cc1` (stereo not shown) [lumefantrine], the “concentration required to inhibit oocyst development” value in data set [1] was “around 10 μM”.

On to `O=C1C(O)=C([C@H]2CC[C@H](c3ccc(Cl)cc3)CC2)C(=O)c2ccccc21` [Atovaquone, atovaquone, reference compound], for which the inhibition at 10 µM with P. vivax ookinetes is 97%. Also, the concentration for half-maximal inhibition (IC50) in data set [2] is over 10000 nM; in [3] it was 9 ± 0.8 nM; in data set [4], 1 ± 0.4 nM; in the data set with P. falciparum HB3 strain, 0.7 ± 0.4 nM; in data set [5], over 10000 nM; with P. falciparum 7G8 strain, 6 ± 4 nM. The compound further returned a cell survival in the data set on HepG2 cells of at least 60%.

For the compound `CCCCCCCCCCOc1cc2c(O)c(C(=O)OCC)cnc2cc1OCC` [Decoquinate], the IC50 with 164/GFP was 10 nM.

Take `CCCCN(CCCC)CCC(O)c1cc2c(Cl)cc(Cl)cc2c2cc(C(F)(F)F)ccc12` (stereo not shown) [halofantrine]: the “concentration required to inhibit oocyst development” value in data set [1] is “around 10 μM”.

With `N[C@@H]1[C@H]2CN(c3nc4c(cc3F)c(=O)c(C(=O)O)cn4-c3ccc(F)cc3F)C[C@@H]12` [trovafloxacin], the “IC50 P. falciparum hepatic stages” value in [6] is 21.6 ± 2.6 µg/mL (≈ 51.9 µM).

For the compound `CCCCc1cc2c(=O)c(C(=O)OCC)c[nH]c2cc1OCCOc1ccccc1` [ICI 56.780], the “reduction of salivary gland infections” value in data set [7] is given as 80%. Also, the “reduction in oocyst numbers” value in data set [8] is given as 100%.

As for `Cc1c(F)c(N2CCNC(C)C2)cc2c1c(=O)c(C(=O)O)cn2C1CC1` (stereo not shown) [Grepafloxacin], the “IC50 P. falciparum hepatic stages” value in data set [6] is 5.0 ± 0.2 µg/mL (≈ 13.9 µM).

Turning to `CCCCCCCc1c(C)[nH]c2cc(F)cc(F)c2c1=O` [ELQ-121], in the data set on TM90C2B, the IC50 was 1.7 nM.

As a reminder, the inhibition is how much of the control response was suppressed. A word on the IC50: it is the midpoint of a concentration-inhibition curve.
